Measured values from patent US5747535A, “Selective thrombin inhibitors” (priority 1995, dated 1998).
Like-named read-outs stand apart in the source and are kept apart here.

Experiments:
bovine thrombin = bovine thrombin (Bos taurus, UniProt P00735); assay: biochemical;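 also: bovine thrombin cleaving the chromogenic substrate Chromozym TH, with para-nitroaniline release tracked as absorbance change over time to give initial rates, in Tris buffer at pH 7.8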
Source text: The thrombin inhibitory effect of the compound of formula (I) according to the present invention can be identified by determination of a dissociation constant Ki represented by the following equation according to the known method described in literature [see, Methods in enzymology V. 80,p341-361;Biochemistry 27,p2144-2151 (1988)].
The dissociation constant Ki denotes the degree of dissociation of the enzyme-thrombin inhibitor complex. […] Such dissociation constant can be determined by reacting thrombin with a certain substrate which develops a color when it is hydrolyzed by the action of thrombin, and then measuring the degree of color development as a function of time by means of spectrophotometry.
Chromozym TH is hydrolyzed by thrombin to produce yellow para-nitroaniline. Accordingly, the amount of yellow para-nitroaniline thus produced can be measured as the change of absorbance in the course of time to determine the thrombin inhibitory activity of the compound according to the present invention. That is, the enzyme activity can be determined from the rate of change in absorbance and then can be directly connected with the ability of the thrombin inhibitor to inhibit the enzyme activity (see, Methods in Enzymology, V. 80,p341-361,Biochemistry 27, p2144-2151, 1988).
The ability of the compound according to the present invention to inhibit the thrombin activity was determined as described in the following.
1160 μl of 0.1M tris buffered solution (pH 7.8) containing 150 mM NaCl and 0.1% PEG 8000 (polyethylene glycol, molecular weight about 8,000) was added to a 1.5 ml cuvette. Chromozym TH was dissolved in dimethylsulfoxide(DMSO) in the concentration of 10mM and the resulting solution was diluted with the said tris buffered solution to the concentration of 0.1 mM, which was then used as the substrate solution. 225 μl of 0.1 mM substrate solution thus prepared was added to the cuvette. The inhibitor solution was prepared by dissolving the thrombin inhibitor compound according to the present invention in dimethylsulfoxide in the concentration of 10 mg/ml and then diluting the resulting solution with the said tris buffered solution to the concentration of 0.1 mg/ml, 0.01 mg/ml, 0.001 mg/ml and 0.0001 mg/ml. The resulting inhibitor solution was taken in an amount corresponding to 0 to 10 μg as the inhibitor and then diluted with tris buffered solution to make the total volume of 100 μl which was added to the cuvette.
15 μl of bovine thrombin solution dissolved in above tris buffered solution in the concentration of 0.1 mg/ml was added to the cuvette to initiate the enzyme hydrolysis reaction. The amount of para-nitroaniline produced for 2 minutes from the moment the enzyme is added was monitored by measuring the absorbance at 381 nm. The continuous spectrum of absorbance to reaction time was depicted. The same experiments were conducted for various concentration of the inhibitor to obtain the continuous spectrum.
In each spectrum, the initial velocity Vi was obtained from the slope within initial 30 seconds of the reaction time and then a graph for the reciprocal value of initial velocity(1/Vi) to the inhibitor concentration was depicted. From the graph, the primary equation satisfying the points depicted thereon was obtained and then the value Ki was calculated from the x intercept of the primary equation using the enzyme reaction equation.
The velocity constant Ks was obtained using the same solution in the same concentration as in determination of the value Ki but using the following experimental procedure.

[1] = Test 2: Pharmacokinetic test in rats; format: in vivo, rat; details: for concentration at 0.05 h: 3 min; for concentration at 0.5 h: 30 min; for concentration at 0.75 h: 45 min; for concentration at 1 h: 60 min; for concentration at 1.5 h: 90 min; for concentration at 2 h: 120 min; for concentration at 3 h: 180 min; for bioavailability: oral route
Protocol: Male rats and dogs were fasted for 24 hours and used as the experimental animals. […] Bloods were collected from the animals at given time intervals and then immediately mixed with methanol and zinc sulfate. Finally, the upper layer of the mixture was quantitatively analyzed at ultraviolet wavelength of 231 nm to measure the drug concentration in blood by HPLC.

trypsin = target: T1, trypsin (Bos taurus, UniProt P00760); assay: biochemical; format: biochemical; details: 20 μM substrate; read-out: Inhibitory activity for trypsin, Ki
T1 sequence (P00760 24-246): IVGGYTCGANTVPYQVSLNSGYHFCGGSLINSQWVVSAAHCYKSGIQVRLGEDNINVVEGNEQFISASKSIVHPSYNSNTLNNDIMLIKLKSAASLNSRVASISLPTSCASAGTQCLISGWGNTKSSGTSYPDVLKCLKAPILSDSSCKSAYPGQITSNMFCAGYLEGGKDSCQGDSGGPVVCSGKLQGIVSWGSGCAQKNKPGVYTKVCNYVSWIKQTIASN
Protocol: To identify the selectivity for thrombin over trypsin of the compound of the present invention, the inhibitory activity for trypsin of the compound of formula (I) is measured as Ki value according to the same method as the above method for determination of thrombin inhibitory activity, and then the ratio of the activity for trypsin to the activity for thrombin is calculated. In this case, the procedure for determination of inhibitory activity for trypsin is substantially identical to that for thrombin, except that N-benzoyl-Val-Gly-Arg para-nitroanilide hydrochloride is used as the substrate.
As the substrate 20μM solution of N-benzoyl-Val-Gly-Arg-p-nitroanilide hydrochloride was used, and the inhibitor was used in various concnetrations within the range of […]. In addition, trypsin was dissolved in 0.1N HCl, adjusted to the concentration of 45 μg/ml with the said tris buffered solution just before the experiment, and then used in an amount of 40μl. As in the experiment for thrombin, a total volume of the reaction solution was 1.5 ml and the remaining procedure was conducted in the same manner.

[2] = rat, blood, iv, 10 mg/kg, Rat-1, i.v. 10 mg/kg, read-out: Blood concentration
[3] = rat, blood, iv, 10 mg/kg, Rat-2, i.v. 10 mg/kg, read-out: Blood concentration
[4] = rat, blood, iv, 10 mg/kg, Rat-3, i.v. 10 mg/kg, read-out: Blood concentration
[5] = rat, blood, iv, 10 mg/kg, rats, i.v. 10 mg/kg, read-out: Blood concentration, Average(+error)
[6] = rat, blood, po, 15 mg/kg, Rat-1, oral 15 mg/kg, read-out: Blood concentration
[7] = rat, blood, po, 15 mg/kg, Rat-2, oral 15 mg/kg, read-out: Blood concentration
[8] = rat, blood, po, 15 mg/kg, Rat-3, oral 15 mg/kg, read-out: Blood concentration
[9] = rat, blood, po, 15 mg/kg, rats, oral 15 mg/kg, read-out: Blood concentration, Average(+error)

For CN(C(=O)[C@H](Cc1ccc(C(=N)NN)cc1)NS(=O)(=O)c1ccc2ccccc2c1)C1CCCC1 [Example 1, (S)-N-cyclopentyl-N-methyl-3-(4-amidrazonophenyl)-2-(2-naphthylsulfonylamino)propionamide], the Ki (bovine thrombin) was 3.8 nM, the concentration at 1 min [1, 2] was 31500 ng/mL and the concentration at 0.05 h [1, 2] was 8100 ng/mL. The concentration at 5 min [1, 2] was 3980 ng/mL, the concentration at 10 min [1, 2] was 1910 ng/mL and the concentration at 20 min [1, 2] was 918 ng/mL. The concentration at 0.5 h [1, 2] was 631 ng/mL, the concentration at 0.75 h [1, 2] was 355 ng/mL and the concentration at 1 h [1, 2] was 270 ng/mL. The concentration at 1.5 h [1, 2] was 168 ng/mL, the concentration at 2 h [1, 2] was 76 ng/mL and the concentration at 3 h [1, 2] was 87 ng/mL. For the same compound, the concentration at 1 min [1, 3] was 23000 ng/mL, the concentration at 0.05 h [1, 3] was 6770 ng/mL and the concentration at 5 min [1, 3] was 3070 ng/mL. It also gave a concentration at 10 min [1, 3] of 1830 ng/mL, a concentration at 20 min [1, 3] of 898 ng/mL and a concentration at 0.5 h [1, 3] of 600 ng/mL. For the same compound, the concentration at 0.75 h [1, 3] was 408 ng/mL, the concentration at 1 h [1, 3] was 242 ng/mL and the concentration at 1.5 h [1, 3] was 166 ng/mL. For the same compound, the concentration at 2 h [1, 3] was 97 ng/mL, the concentration at 3 h [1, 3] was 73 ng/mL and the concentration at 1 min [1, 4] was 32000 ng/mL. It also gave a concentration at 0.05 h [1, 4] of 7880 ng/mL, a concentration at 5 min [1, 4] of 4220 ng/mL and a concentration at 10 min [1, 4] of 1930 ng/mL. It also gave a concentration at 20 min [1, 4] of 883 ng/mL, a concentration at 0.5 h [1, 4] of 591 ng/mL and a concentration at 0.75 h [1, 4] of 398 ng/mL. For the same compound, the concentration at 1 h [1, 4] was 289 ng/mL, the concentration at 1.5 h [1, 4] was 184 ng/mL and the concentration at 2 h [1, 4] was 119 ng/mL. The concentration at 3 h [1, 4] was 78 ng/mL, the concentration at 1 min [1, 5] was 28800 ng/mL and the concentration at 0.05 h [1, 5] was 7590 ng/mL. It also gave a concentration at 5 min [1, 5] of 3760 ng/mL, a concentration at 10 min [1, 5] of 1890 ng/mL and a concentration at 20 min [1, 5] of 900 ng/mL. The concentration at 0.5 h [1, 5] was 607 ng/mL, the concentration at 0.75 h [1, 5] was 387 ng/mL and the concentration at 1 h [1, 5] was 267 ng/mL. The concentration at 1.5 h [1, 5] was 173 ng/mL, the concentration at 2 h [1, 5] was 97 ng/mL and the concentration at 3 h [1, 5] was 79 ng/mL. It also gave a concentration at 5 min [1, 6] of 1610 ng/mL, a concentration at 10 min [1, 6] of 1480 ng/mL and a concentration at 20 min [1, 6] of 569 ng/mL. The concentration at 0.5 h [1, 6] was 232 ng/mL, the concentration at 0.75 h [1, 6] was 145 ng/mL and the concentration at 1 h [1, 6] was 143 ng/mL. The concentration at 1.5 h [1, 6] was 66 ng/mL, the concentration at 2 h [1, 6] was 34 ng/mL and the concentration at 3 h [1, 6] was 24 ng/mL. The concentration at 5 min [1, 7] was 822 ng/mL, the concentration at 10 min [1, 7] was 686 ng/mL and the concentration at 20 min [1, 7] was 166 ng/mL. It also gave a concentration at 0.5 h [1, 7] of 82 ng/mL, a concentration at 0.75 h [1, 7] of 107 ng/mL and a concentration at 1 h [1, 7] of 123 ng/mL. For the same compound, the concentration at 1.5 h [1, 7] was 186 ng/mL, the concentration at 3 h [1, 7] was 238 ng/mL and the concentration at 5 min [1, 8] was 570 ng/mL. It also gave a concentration at 10 min [1, 8] of 384 ng/mL, a concentration at 20 min [1, 8] of 97 ng/mL and a concentration at 0.5 h [1, 8] of 113 ng/mL. For the same compound, the concentration at 0.75 h [1, 8] was 112 ng/mL, the concentration at 1 h [1, 8] was 110 ng/mL and the concentration at 1.5 h [1, 8] was 119 ng/mL. It also gave a concentration at 2 h [1, 8] of 71 ng/mL, a concentration at 3 h [1, 8] of 64 ng/mL and a concentration at 5 min [1, 9] of 1000 ng/mL. It also gave a concentration at 10 min [1, 9] of 850 ng/mL, a concentration at 20 min [1, 9] of 255 ng/mL and a concentration at 0.5 h [1, 9] of 143 ng/mL. The concentration at 0.75 h [1, 9] was 121 ng/mL, the concentration at 1 h [1, 9] was 125 ng/mL and the concentration at 1.5 h [1, 9] was 124 ng/mL. The concentration at 2 h [1, 9] was 53 ng/mL, the concentration at 3 h [1, 9] was 109 ng/mL and the bioavailability ([1]; rat, blood, rats, read-out: Bioavailability) was 15%. The half-life ([1]; rat, blood, rats, read-out: Elimination Half-life, Average + (error)) was 47 min, the “distribution and disappearance after intravenous injection” value ([1]; rats, intravenous) was “rapidly distributed and then slowly disappeared” and the bioavailability ([1]; rats) was 15 (2) %. For the same compound, the Ki (trypsin) was 3190 nM.
